Results reported in US4416891A, “Ester of 6-[(hexahydro-1H-azepin-1-yl)methyleneamino]penicillanic acid, and its use as antibacterial agent” (priority 1981, dated 1983).
Where a name gives a salt, the structure may show the parent alone. Read-outs that look alike come from different tables or passages of the source.

Experiments:
[1] = Stability in mouse serum (bioautography); assay type: in vitro ADME; details: 40% mouse serum, 37° C., pH 7.4 phosphate buffer
Protocol: (§1) (b) Experimental procedure
4 ml of mouse serum was added to 5.6 ml of 0.1 M phosphate buffer (pH 7.4), and then a portion (0.4 ml) of a solution of 20 mg of compound (I).HCl.H2 O in 1 ml of dimethyl sulfoxide was added. The solution was kept at 37° C. for 10 minutes to form a test solution.
The test solution obtained in (1) above was subjected to the same operation as in Example 1, (b), (2).

[2] = Stability in an artificial gastric juice (bioautography); assay type: in vitro ADME; details: pH about 1.2, 37° C.
Protocol: Stability in an artificial gastric juice
(5-methyl-2-oxo-1,3-dioxolen-4-yl)methyl 6-[(hexahydro-1H-azepin-1-yl)methleneamino]penicillanate hydrochloride monohydrate [compound (I).HCl.H2 O]
as §1
A solution of 2 mg of compound (I).HCl.H2 O in 0.2 ml of dimethyl sulfoxide was added to 3.8 ml of the artificial gastric juice described in The Pharmacopoeia of Japan, 10th edition (having a pH of about 1.2 and prepared by adding 24.0 ml of 10% HCl to 2.0 g of sodium chloride and adding water to adjust the total amount to 1000 ml). The solution was maintained at 37° C., and bioautographed as shown below after the lapse of 10 minutes, 30 minutes, and 50 minutes, respectively.
(i) The test solution was spotted on a cellulose plate [Cellulose F (Art 5718 supplied by Merck & Co.)] for thin-layer chromatography, and developed with the upper layer of a mixture of n-butanol, ethanol and water in a ratio of 4:1:5. The plate was dried in the air, and a 10% aqueous solution of mouse serum was sprayed onto the plate. […]
(iv) After the cultivation, the position (Rf value) of an inhibitory zone on the plate against E. coli NIHJ was determined. From this Rf value and Rf values of compound (I).HCl.H2 O and Mecillinam (X) separately determined under the same conditions as in (i) to (iii) above, the compound in the test solution was identified. […]

[3] = test system: Escherichia coli NIHJ; assay: Antibacterial activity in oral administration to mice (inhibitory zone of serum samples); assay type: in vivo; details: male ddY mice, dose corresponding to 50 mg/kg of Mecillinam, average of n=4, read-out: Diameter of the inhibitory zone
Protocol: Antibacterial activity in oral administration to mice
Compound (I).HCl.H2 O and Pivmecillinam.HCl.
as §1
Male ddY mice (6 weeks old, body weight 28±2 g) were used. They were caused to fast for 16 hours before the administration of the test compounds.
An aqueous solution (5 mg/ml) of each of the test compounds was prepared, and orally administered to mice (five per group) in a dose corresponding to 50 mg/kg of Mecillinam.
Blood samples were taken individually from five mice in each group at 30, 60 and 90 minutes after the administration of each compound. The blood samples were immediately centrifuged individually at 3,000 rpm for 15 minutes, and serum samples obtained (each in an amount of 0.2 ml) were combined to give 1 ml of serum for assaying.
(4) Measurement of antibacterial activity
0.2 ml of a suspension of Escherichia coli NIHJ as test organism was added to 5 ml of nutrient agar kept at about 48° C. to give an agar plate. The assaying serum prepared in (3) above was infiltrated into a paper disc (a thick type with a diameter of 8 mm, supplied by Toyo Filter Paper Co., Ltd.), and the paper disc was placed on the agar plate (n=4). It was maintained at 37° C. for 18 hours, and the diameter of the resulting inhibitory zone was measured with respect to each of the serum samples.
The diameter of the inhibitory zone (an average of n=4) measured with respect to each of the serum samples was as shown in Table 1.

[4] = Toxicity test: acute toxicity (LD50) in oral administration; details: mouse, in vivo, male ddY-strain mice, five per group
From the text: The acute toxicity (LD50) of compound (I).HCl.H2 O and Pivmecillinam.HCl in oral administration was examined by using male ddY-strain mice (body weight 22 to 25 g; five per group).

[5] = Stability in an artificial intestinal juice (bioautography); assay type: in vitro ADME; details: pH about 6.8, 37° C.
Protocol: Stability in an artificial intestinal juice
as §1
A test solution was prepared in the same way as in Test Example 1, (b), (1) except that the artificial intestinal juice described in The Pharmacopoeia of Japan, 10th edition (having a pH of about 6.8 and prepared by adding water to 250 ml of a 0.2 M aqueous solution of potassium dihydrogen phosphate and 118 ml of a 0.2 N aqueous solution of sodium hydroxide to form a solution having a total volume of 1000 ml) was used instead of the artificial gastric juice.
Performed in the same way as in Test Example 1, (b), (2).

[6] = test system: Gram-negative bacteria, especially Escherichia coli and Klebsiella pneumoniae; details: compared with Gram-positive bacteria; cited from earlier work
[7] = cited from earlier work
[8] = oral, man, 400 mg; cited from earlier work
[9] = 0.5 h, blood letting time 30 min
[10] = in Mus musculus, blood letting time 90 min

Row | Structure (SMILES) | transformation to Mecillinam (X) in mouse serum [1] | period of stability in the artificial gastric juice [2] | zone of inhibition at 50 mg/kg [3, 9] [mm] | zone of inhibition at 50 mg/kg ([3]; 1 h, blood letting time 60 min) [mm] | zone of inhibition at 50 mg/kg [3, 10] [mm] | LD50 [4] [mg/kg] | stability in the artificial intestinal juice [5] | antibacterial spectrum [6] | absorbability or bioavailability in oral administration [7] | urinary excretion after the 6 hour period [8] [%]
1 | Cc1oc(=O)oc1COC(=O)[C@@H]1N2C(=O)[C@@H](N=CN3CCCCCC3)[C@H]2SC1(C)C [Compound (I).HCl.H2 O, (5-methyl-2-oxo-1,3-dioxolen-4-yl)methyl 6-[(hexahydro-1H-azepin-1-yl)methleneamino]penicillanate hydrochloride monohydrate] | transformed to Mecillinam (X) in 40% mouse serum within ten minutes at 37 °C | more than 50 minutes | 23.3 | 20 | 17.2 | 5210 | stable in the artificial intestinal juice |  |  | 
2 | CC1(C)S[C@@H]2[C@H](N=CN3CCCCCC3)C(=O)N2[C@H]1C(=O)O [Mecillinam (X), 6-[(hexahydro-1H-azepin-1yl)methyleneamino]penicillanic acid] |  |  |  |  |  |  |  | stronger activity against Gram-negative bacteria, especially Escherichia coli and Klebsiella pneumoniae, than against Gram-positive bacteria | low | 
3 | CC(C)(C)C(=O)OCOC(=O)[C@@H]1N2C(=O)[C@@H](N=CN3CCCCCC3)[C@H]2SC1(C)C [Pivmecillinam (X')] |  |  |  |  |  |  |  |  |  | 45
4 | CC(C)(C)C(=O)OCOC(=O)[C@@H]1N2C(=O)[C@@H](N=CN3CCCCCC3)[C@H]2SC1(C)C [Pivmecillinam.HCl] |  |  | 23.2 | 20.8 | 18 | 3840 |  |  |  | 
